In US8486381B2, “Methods of modulating intestinal fluid balance” (Amgen Inc., priority 2005, dated 2013):

System: cyclic GMP
Test: Secretagogue-stimulated cyclic GMP accumulation in colonic crypt cell suspensions
Assay type: cell-based

## [Ca+2] [Ca^2+]
  Effect on Guanylin or STa induced cyclic GMP production: attenuates
